Assay results taken from patent US20240298638A1, “METHODS AND COMPOSITIONS FOR REDUCING MICROBIAL CONTAMINANTS DURING POULTRY PROCESSING” (DIVERSEY, INC., priority 2020, published 2024).

System: Salmonella Enterica ATCC 10708
Assay: Antimicrobial efficacy on inoculated chicken drumettes (log10 reduction, nBPW neutralizer; Colby synergy)
Assay type: cell-based
Conditions: for Observed Average Reduction (AntiLog10 value): antiLog10 of the observed log10 reduction; for Observed Average Reduction (AntiLog10 value) / Observed Average Log10 Reduction: Salmonella Enterica ATCC 10708; for Observed Average Log10 Reduction: chicken drumettes soaked 90 seconds in composition, recovery in nBPW neutralizer

CC(=O)OO [PAA, peracetic acid]
Observed Average Reduction (AntiLog10 value): 14.15
Observed Average Log10 Reduction: 1.16 log10

CC(O)CO (centres unmarked) [Propylene glycol]
antimicrobial efficiency of the organic solvent by itself (by itself): did not provide any antimicrobial efficiency

CCC(=O)O [propionic acid]
Observed Average Reduction (AntiLog10 value): 6.17
Observed Average Log10 Reduction: 0.79 log10
